Test results: patent US12077503B2, “Substituted cyclic amides and their use as herbicides” (FMC CORPORATION, priority 2015, dated 2024)
Read-outs that look alike come from different tables or passages of the source.

How the values were obtained:
Assay type in all cases: in vivo
[1] = system: blackgrass (Alopecurus myosuroides); assay: Test A postemergence; conditions: Alopecurus myosuroides, post-emergence, 240 h; for pest or weed control at 125 g/ha: 125 g ai/ha, read-out: Blackgrass plant response rating (0 to 100 scale); for pest or weed control at 500 g/ha: 500 g ai/ha
Outline: (§1)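 Compounds were formulated in a non-phytotoxic solvent mixture with surfactant and applied as a preemergence directed soil spray after seeding, or sprayed postemergence over plants 2 to 10 cm tall at the one- to two-leaf stage. Evaluation after about 10 d compared treated with untreated controls, using a scale from 0 (no effect) to 100 (complete control).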

[2] = system: pigweed (Amaranthus retroflexus); assay: Test A postemergence; conditions: Amaranthus retroflexus, post-emergence, 240 h; for pest or weed control at 125 g/ha: 125 g ai/ha, read-out: Pigweed plant response rating (0 to 100 scale); for pest or weed control at 500 g/ha: 500 g ai/ha
Outline: as §1

[3] = system: ryegrass, Italian (Italian ryegrass, Lolium multiflorum); assay: Test A postemergence; conditions: Lolium multiflorum, post-emergence, 240 h; for pest or weed control at 125 g/ha: 125 g ai/ha, read-out: Ryegrass, Italian plant response rating (0 to 100 scale); for pest or weed control at 500 g/ha: 500 g ai/ha
Outline: as §1

[4] = system: giant foxtail (Setaria faberii); assay: Test A postemergence; conditions: Setaria faberi, post-emergence, 240 h; for pest or weed control at 125 g/ha: 125 g ai/ha, read-out: Foxtail, Giant plant response rating (0 to 100 scale); for pest or weed control at 500 g/ha: 500 g ai/ha
Outline: as §1

[5] = system: wheat (Triticum aestivum); assay: Test A postemergence; conditions: Triticum aestivum, post-emergence, 240 h; for plant injury at 125 g/ha: 125 g ai/ha, read-out: Wheat plant response rating (0 to 100 scale); for plant injury at 500 g/ha: 500 g ai/ha
Outline: as §1

Kochia (Kochia scoparia) = assay: Test A preemergence; conditions: Bassia scoparia, pre-emergence, 240 h, preemergence, 0 to 100 scale where 0 is no effect and 100 is complete control, read-out: Kochia plant response rating; for pest or weed control at 125 g/ha: 125 g ai/ha, visual injury rating, approximately 10 d; for pest or weed control at 500 g/ha: 500 g ai/ha
Outline: as §1

[6] = system: pigweed (Amaranthus retroflexus); assay: Test A preemergence; conditions: Amaranthus retroflexus, pre-emergence, 240 h, preemergence, 0 to 100 scale where 0 is no effect and 100 is complete control, read-out: Pigweed plant response rating; for pest or weed control at 125 g/ha: 125 g ai/ha, visual injury rating, approximately 10 d; for pest or weed control at 500 g/ha: 500 g ai/ha
[7] = system: ryegrass, Italian (Italian ryegrass, Lolium multiflorum); assay: Test A preemergence; conditions: Lolium multiflorum, pre-emergence, 240 h, preemergence, 0 to 100 scale where 0 is no effect and 100 is complete control, read-out: Ryegrass, Italian plant response rating; for pest or weed control at 125 g/ha: 125 g ai/ha, visual injury rating, approximately 10 d; for pest or weed control at 500 g/ha: 500 g ai/ha
Outline: as §1

[8] = system: barnyardgrass (Echinochloa crus-galli); assay: Test A preemergence; conditions: Echinochloa crus-galli, pre-emergence, 240 h, preemergence, 0 to 100 scale where 0 is no effect and 100 is complete control, read-out: Barnyardgrass plant response rating; for pest or weed control at 125 g/ha: 125 g ai/ha, visual injury rating, approximately 10 d; for pest or weed control at 500 g/ha: 500 g ai/ha
Outline: as §1

[9] = system: giant foxtail (Setaria faberii); assay: Test A preemergence; conditions: Setaria faberi, pre-emergence, 240 h, preemergence, 0 to 100 scale where 0 is no effect and 100 is complete control, read-out: Foxtail, Giant plant response rating; for pest or weed control at 125 g/ha: 125 g ai/ha, visual injury rating, approximately 10 d; for pest or weed control at 500 g/ha: 500 g ai/ha
Outline: as §1

[10] = system: ragweed (common ragweed, Ambrosia elatior); assay: Test A preemergence; conditions: Ambrosia artemisiifolia, pre-emergence, 240 h, preemergence, 0 to 100 scale where 0 is no effect and 100 is complete control, read-out: Ragweed plant response rating; for pest or weed control at 125 g/ha: 125 g ai/ha, visual injury rating, approximately 10 d; for pest or weed control at 500 g/ha: 500 g ai/ha
Outline: as §1

rice (Oryra sativa) = assay: Test B flooded paddy test; conditions: Oryza sativa, 250 g ai/ha, Flood; 0 to 100 scale where 0 is no effect and 100 is complete control; read-out: Rice plant response rating
Outline: (§2)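 Greenhouse paddy pots with 2-leaf stage plants received compound by direct addition to floodwater 3 cm deep, kept at that level. Scored visually at 13–15 d versus controls (0 no effect; 100 complete control).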

[11] = system: barnyardgrass (Echinochloa crus-galli); assay: Test B flooded paddy test; conditions: Echinochloa crus-galli, 250 g ai/ha, Flood; 0 to 100 scale where 0 is no effect and 100 is complete control; read-out: Barnyardgrass plant response rating
Outline: as §2

[12] = system: ducksalad (Heteranthera limosa); assay: Test B flooded paddy test; conditions: Heteranthera limosa, 250 g ai/ha, Flood; 0 to 100 scale where 0 is no effect and 100 is complete control; read-out: Ducksalad plant response rating
Outline: as §2

[13] = system: sedge, umbrella (small-flower umbrella sedge, Cyperus difformis); assay: Test B flooded paddy test; conditions: Cyperus difformis, 250 g ai/ha, Flood; 0 to 100 scale where 0 is no effect and 100 is complete control; read-out: Sedge, Umbrella plant response rating
Outline: as §2

[14] = postemergence, visual injury vs untreated controls after approx. 10 d, 0 = no effect, 100 = complete control
[15] = Postemergence, visual injury, 0 to 100 scale (0 no effect, 100 complete control), approx. 10 d, read-out: Plant response rating, Blackgrass
[16] = Postemergence, visual injury, 0 to 100 scale (0 no effect, 100 complete control), approx. 10 d, read-out: Plant response rating, Pigweed
[17] = Postemergence, visual injury, 0 to 100 scale (0 no effect, 100 complete control), approx. 10 d, read-out: Plant response rating, Ryegrass, Italian
[18] = Postemergence, visual injury, 0 to 100 scale (0 no effect, 100 complete control), approx. 10 d, read-out: Plant response rating, Foxtail, Giant
[19] = Postemergence, visual injury, 0 to 100 scale (0 no effect, 100 complete control), approx. 10 d, read-out: Plant response rating, Wheat
[20] = Postemergence, visual rating about 10 d after treatment

Row | SMILES | pest or weed control at 125 g/ha [1, 14] [%] | pest or weed control at 125 g/ha [2, 14] [%] | pest or weed control at 125 g/ha [3, 14] [%] | pest or weed control at 125 g/ha [4, 14] [%] | pest or weed control at 125 g/ha (Kochia (Kochia scoparia)) [%] | pest or weed control at 500 g/ha (Kochia (Kochia scoparia)) [%] | pest or weed control at 125 g/ha [6] [%] | pest or weed control at 500 g/ha [6] [%] | pest or weed control at 125 g/ha [7] [%] | pest or weed control at 500 g/ha [7] [%] | pest or weed control at 125 g/ha [8] [%] | pest or weed control at 500 g/ha [8] [%] | pest or weed control at 125 g/ha [9] [%] | pest or weed control at 500 g/ha [9] [%] | pest or weed control at 125 g/ha [10] [%] | pest or weed control at 500 g/ha [10] [%] | pest or weed control at 250 g/ha (rice (Oryra sativa)) [%] | pest or weed control at 250 g/ha [11] [%] | pest or weed control at 250 g/ha [12] [%] | pest or weed control at 250 g/ha [13] [%] | other results
1 | CN1CC[C@H](c2ccc(C(F)(F)F)cc2)[C@@H](C(=O)Nc2cccc(Cl)c2F)C1=O [Compound 1228] | 0 | 20 | 0 | 80 | 0 | 0 | 20 | 60 | 30 | 60 | 90 | 90 | 90 | 90 | 0 | 0 | 30 | 50 | 100 | 0 | pest or weed control at 500 g/ha ([1]; postemergence, 0 to 100 scale, 0 is no effect, 100 is complete control, read-out: Blackgrass plant response rating): 40%; pest or weed control at 500 g/ha ([2]; postemergence, 0 to 100 scale, 0 is no effect, 100 is complete control, read-out: Pigweed plant response rating): 50%; pest or weed control at 500 g/ha ([3]; postemergence, 0 to 100 scale, 0 is no effect, 100 is complete control, read-out: Ryegrass, Italian plant response rating): 30%; pest or weed control at 500 g/ha ([4]; postemergence, 0 to 100 scale, 0 is no effect, 100 is complete control, read-out: Foxtail, Giant plant response rating): 80%; plant injury at 125 g/ha [5, 14]: 0%; plant injury at 500 g/ha ([5]; postemergence, 0 to 100 scale, 0 is no effect, 100 is complete control, read-out: Wheat plant response rating): 30%
2 | CN1C[C@H](c2cccc(C(F)(F)F)c2)[C@@H](C(=O)Nc2ccc(F)cc2C(F)(F)F)C1=O [Compound 1250] | 20 | 0 | 20 | 80 | 0 | 40 | 30 | 30 | 50 | 50 | 100 | 100 | 100 | 100 | 0 | 0 | 0 | 50 | 100 | 0 | pest or weed control at 500 g/ha [1, 15]: 60%; pest or weed control at 500 g/ha [2, 16]: 30%; pest or weed control at 500 g/ha [3, 17]: 50%; pest or weed control at 500 g/ha [4, 18]: 80%; plant injury at 125 g/ha [5, 14]: 40%; plant injury at 500 g/ha [5, 19]: 70%
3 | O=C1NC[C@H](c2nccc(C(F)(F)F)n2)[C@H]1C(=O)Nc1ccccc1F [Compound 1304] |  |  |  |  | 0 | 0 | 0 | 0 | 0 | 0 | 0 | 0 | 0 | 0 | 0 | 0 | 0 | 0 | 0 | 0 | pest or weed control at 125 g/ha [1, 20]: 0%; pest or weed control at 500 g/ha [1, 15]: 0%; pest or weed control at 125 g/ha [2, 20]: 0%; pest or weed control at 500 g/ha [2, 16]: 0%; pest or weed control at 125 g/ha [3, 20]: 0%; pest or weed control at 500 g/ha [3, 17]: 0%; pest or weed control at 125 g/ha [4, 20]: 0%; pest or weed control at 500 g/ha [4, 18]: 0%; plant injury at 125 g/ha [5, 20]: 0%; plant injury at 500 g/ha [5, 19]: 0%
